Active and inactive are the calls of the source. The rule behind the calls is not given here.
System: CCRIS mutagenicity, Ames/micronucleus/aberration tests
Assay: CCRIS mutagenicity studies
[1] = Test System: AMES SALMONELLA TYPHIMURIUM, Strain/Indicator: TA98, Metabolic Activation: HAMSTER, LIVER, S-9, AROCLOR 1254 (10%), Method: PREINCUBATION
[2] = Test System: AMES SALMONELLA TYPHIMURIUM, Strain/Indicator: TA98, Metabolic Activation: NONE, Method: PREINCUBATION
[3] = Test System: AMES SALMONELLA TYPHIMURIUM, Strain/Indicator: TA98, Metabolic Activation: RAT, LIVER, S-9, AROCLOR 1254 (10%), Method: PREINCUBATION
[4] = Test System: AMES SALMONELLA TYPHIMURIUM, Strain/Indicator: TA100, Metabolic Activation: HAMSTER, LIVER, S-9, AROCLOR 1254 (10%), Method: PREINCUBATION
[5] = Test System: AMES SALMONELLA TYPHIMURIUM, Strain/Indicator: TA100, Metabolic Activation: NONE, Method: PREINCUBATION
[6] = Test System: AMES SALMONELLA TYPHIMURIUM, Strain/Indicator: TA100, Metabolic Activation: RAT, LIVER, S-9, AROCLOR 1254 (10%), Method: PREINCUBATION
[7] = Test System: AMES SALMONELLA TYPHIMURIUM, Strain/Indicator: TA1535, Metabolic Activation: HAMSTER, LIVER, S-9, AROCLOR 1254 (10%), Method: PREINCUBATION
[8] = Test System: AMES SALMONELLA TYPHIMURIUM, Strain/Indicator: TA1535, Metabolic Activation: NONE, Method: PREINCUBATION
[9] = Test System: AMES SALMONELLA TYPHIMURIUM, Strain/Indicator: TA1535, Metabolic Activation: RAT, LIVER, S-9, AROCLOR 1254 (10%), Method: PREINCUBATION
[10] = Test System: AMES SALMONELLA TYPHIMURIUM, Strain/Indicator: TA1537, Metabolic Activation: NONE, Method: PREINCUBATION
[11] = Test System: AMES SALMONELLA TYPHIMURIUM, Strain/Indicator: TA98, Metabolic Activation: HAMSTER, LIVER, S-9, AROCLOR 1254 (30%), Method: PREINCUBATION
[12] = Test System: AMES SALMONELLA TYPHIMURIUM, Strain/Indicator: TA98, Metabolic Activation: NONE, Method: STANDARD PLATE
[13] = Test System: AMES SALMONELLA TYPHIMURIUM, Strain/Indicator: TA98, Metabolic Activation: RAT, LIVER, S-9, AROCLOR 1254 (30%), Method: PREINCUBATION
[14] = Test System: AMES SALMONELLA TYPHIMURIUM, Strain/Indicator: TA100, Metabolic Activation: HAMSTER, LIVER, S-9, AROCLOR 1254 (30%), Method: PREINCUBATION
[15] = Test System: AMES SALMONELLA TYPHIMURIUM, Strain/Indicator: TA100, Metabolic Activation: NONE, Method: STANDARD PLATE
[16] = Test System: AMES SALMONELLA TYPHIMURIUM, Strain/Indicator: TA100, Metabolic Activation: RAT, LIVER, S-9, AROCLOR 1254 (30%), Method: PREINCUBATION
[17] = Test System: AMES SALMONELLA TYPHIMURIUM, Strain/Indicator: TA1535, Metabolic Activation: NONE, Method: STANDARD PLATE
[18] = Test System: AMES SALMONELLA TYPHIMURIUM, Strain/Indicator: TA1537, Metabolic Activation: NONE, Method: STANDARD PLATE

Row | Compound | mutagenic call [1] | mutagenic call [2] | mutagenic call [3] | mutagenic call [4] | mutagenic call [5] | mutagenic call [6] | mutagenic call [7] | mutagenic call [8] | mutagenic call [9] | mutagenic call [10] | mutagenic call [11] | mutagenic call [12] | mutagenic call [13] | mutagenic call [14] | mutagenic call [15] | mutagenic call [16] | mutagenic call [17] | mutagenic call [18] | other results
1 | CN(C)CCN(C)C | inactive; negative | inactive; negative | inactive; negative | inactive; negative | inactive; negative | inactive; negative | inactive; negative | inactive; negative | inactive; negative | inactive; negative |  |  |  |  |  |  |  |  | mutagenic call (Test System: AMES SALMONELLA TYPHIMURIUM, Strain/Indicator: TA1537, Metabolic Activation: HAMSTER, LIVER, S-9, AROCLOR 1254 (10%), Method: PREINCUBATION): inactive; negative; mutagenic call (Test System: AMES SALMONELLA TYPHIMURIUM, Strain/Indicator: TA1537, Metabolic Activation: RAT, LIVER, S-9, AROCLOR 1254 (10%), Method: PREINCUBATION): inactive; negative
2 | [N-]=[N+]=NC[C@@H](O)c1ccccc1 |  |  |  |  |  |  |  |  |  |  |  |  |  |  |  |  |  |  | mutagenic call (Test System: AMES SALMONELLA TYPHIMURIUM, Strain/Indicator: TA100, Metabolic Activation: RAT, LIVER, S-9, PCB, Method: PREINCUBATION): active; positive
3 | S=P(N1CC1)(N1CC1)N1CC1 |  | inactive; negative |  |  | active; positive |  |  |  |  |  | inactive; negative | inactive; negative | inactive; negative | active; positive | active; positive | active; positive | active; positive | inactive; negative | mutagenic call (Test System: CHINESE HAMSTER V-79, Strain/Indicator: V-79/6-THIOGUANINE, Metabolic Activation: NONE, Method: FLASK ASSAY): inactive; negative; mutagenic call (Test System: E. COLI, Strain/Indicator: WP2 (HCR), Metabolic Activation: NONE, Method: STANDARD PLATE): active; positive
4 | O=C(CCl)Nc1snc2ccc(Cl)cc12 |  |  |  |  |  |  |  |  |  |  |  | inactive; negative |  |  | inactive; negative |  | inactive; negative | active; positive | mutagenic call (Test System: AMES SALMONELLA TYPHIMURIUM, Strain/Indicator: TA98, Metabolic Activation: S-9, Method: STANDARD PLATE): active; positive; mutagenic call (Test System: AMES SALMONELLA TYPHIMURIUM, Strain/Indicator: TA100, Metabolic Activation: S-9, Method: STANDARD PLATE): active; positive; mutagenic call (Test System: AMES SALMONELLA TYPHIMURIUM, Strain/Indicator: TA1535, Metabolic Activation: S-9, Method: STANDARD PLATE): inactive; negative; mutagenic call (Test System: AMES SALMONELLA TYPHIMURIUM, Strain/Indicator: TA1537, Metabolic Activation: S-9, Method: STANDARD PLATE): active; positive
5 | Cc1ccc(Br)cc1 | inactive; negative | inactive; negative | inactive; negative | inactive; negative | inactive; negative | inactive; negative | inactive; negative | inactive; negative | inactive; negative | inactive; negative | inactive; negative |  | inactive; negative | inactive; negative |  | inactive; negative |  |  | mutagenic call (Test System: AMES SALMONELLA TYPHIMURIUM, Strain/Indicator: TA97, Metabolic Activation: HAMSTER, LIVER, S-9, AROCLOR 1254 (10%), Method: PREINCUBATION): inactive; negative; mutagenic call (Test System: AMES SALMONELLA TYPHIMURIUM, Strain/Indicator: TA97, Metabolic Activation: HAMSTER, LIVER, S-9, AROCLOR 1254 (30%), Method: PREINCUBATION): inactive; negative; mutagenic call (Test System: AMES SALMONELLA TYPHIMURIUM, Strain/Indicator: TA97, Metabolic Activation: NONE, Method: PREINCUBATION): inactive; negative; mutagenic call (Test System: AMES SALMONELLA TYPHIMURIUM, Strain/Indicator: TA97, Metabolic Activation: RAT, LIVER, S-9, AROCLOR 1254 (10%), Method: PREINCUBATION): inactive; negative; mutagenic call (Test System: AMES SALMONELLA TYPHIMURIUM, Strain/Indicator: TA97, Metabolic Activation: RAT, LIVER, S-9, AROCLOR 1254 (30%), Method: PREINCUBATION): inactive; negative; mutagenic call (Test System: AMES SALMONELLA TYPHIMURIUM, Strain/Indicator: TA1535, Metabolic Activation: HAMSTER, LIVER, S-9, AROCLOR 1254 (30%), Method: PREINCUBATION): inactive; negative; mutagenic call (Test System: AMES SALMONELLA TYPHIMURIUM, Strain/Indicator: TA1535, Metabolic Activation: RAT, LIVER, S-9, AROCLOR 1254 (30%), Method: PREINCUBATION): inactive; negative; mutagenic call (Test System: AMES SALMONELLA TYPHIMURIUM, Strain/Indicator: TA1537, Metabolic Activation: HAMSTER, LIVER, S-9, AROCLOR 1254 (30%), Method: PREINCUBATION): inactive; negative; mutagenic call (Test System: AMES SALMONELLA TYPHIMURIUM, Strain/Indicator: TA1537, Metabolic Activation: RAT, LIVER, S-9, AROCLOR 1254 (30%), Method: PREINCUBATION): inactive; negative
6 | Cc1ccc(OCC2CO2)cc1 (stereo unspecified) |  |  |  |  | active; positive | active; positive | active; positive | active; positive | active; positive |  |  |  |  |  |  |  |  |  | 

Source: PubChem BioAssay AID1259407 (Chemical Carcinogenesis Research Information System (CCRIS), 2018)
